These results are taken from paper PMC10755736, “Modulating Liquid–Liquid Phase Separation of Nck Adaptor Protein against Enteropathogenic Escherichia coli Infection” (ACS Central Science, 2023).

Structures are written as SMILES. Non-standard residues stand in square brackets, D forms with d. Residues, ends and D or L forms follow the SMILES beside them. *: point of attachment. Biotin = O=C1N[C@H]2[C@H](CS[C@H]2CCCCC(=O)*)N1; Benzoyl(4-SO2F) = O=C(c1ccc(S(=O)(=O)F)cc1)*; pY = N[C@@H](Cc1ccc(OP(=O)(O)O)cc1)C(=O)O; Dap = NC[C@H](N)C(=O)O

The test system of one assay is Nck in Caco-2 cells. The assay can be described thus: In cell reaction of p1 with endogenous Nck (Western blot). It counts as cell-based. As to conditions: L17E and p1 (printed 40 mM and 10 mM) overnight; anti-Nck Western blot. As for the experimental part:
Caco-2 cells were seeded in a 24-well plate at a density of 1×10^4 cells for 24 h and pretreated with peptide complexes for 2 h. After washing with DMEM, cells were infected with EPEC at selected MOI values for 3 h at 37 ℃. Cells were then treated with gentamicin ([…]) for 2 h and lysed with 1% Triton X-100 for 15 min. The lysates were diluted 100 or 1000 folds to be spread on LB agar plates […]
Immunofluorescence Confocal Microscopy
Infected cells were fixed with 4% PFA and treated with 0.1% Triton X-100 for 10 min. And then the samples were blocked with 3% BSA for 1 h, incubated with anti-Tir antibody (Abbexa, C ambridge, UK) at 1:200 at 4℃ over night and followed by incubation with Alexa Fluo 488 goat anti -rabbit IgG secondary antibody at room temperature for 2 h. Cells were treated with DAPI (Invitrogen) for 10 min, then stained with phalloidin (Alexa Fluor 594 -conjugated phalloidin, Invitrogen) for 1 h and imaged by a confocal fluorescent microscope (SP8, Leica).
Caco -2 cells were treated with peptides overnight and lysed via RIPA buffer containing protease inhibitors for 15 min at 4℃. […]
SPSS 23.0 statistical software was used to process experimental data. The differences between mean ± SEM of three independent experiments were assessed by Student's t -test. […]
A general note: In western blotting, separated proteins are transferred to a membrane and probed.

Another assay addresses T1, Nck (Homo sapiens, UniProt P16333).
T1 construct: GST (followed by PreScission/HRV 3C site) (N, cleaved yes); made in house; host or cells: E. coli BL21(DE3)
The experiment in a line: Reaction kinetics of p1 crosslinking with Nck (SDS-PAGE). The format is binding. As to conditions: 1:1 reaction, p1 5 μM, Nck 5 μM, PBS, 37 °C. As for the experimental part: ether and purified by reverse-phase HPLC on a C18 column using acetonitrile/H2O (with 0.1% TFA) gradient on a reversed-phase C18 column, confirmed by MALDI-TOF MS analysis (Bruker, USA).
Pure peptides were lyophilized.
Crosslinking of Peptides with Nck in vitro […]
After incubation, 5´ loading buffer was added into the solution and heated at 100 °C for 10 min. These samples were then separated by 12% SDS-PAGE gel, which contained 10% glycerol instead of DI water, followed by staining with Coomassie brilliant blue. Western blot was then performed using the primary antibody specific for Nck or biotin and the secondary antibody.
Mass Spectrometric Analysis
The reaction mixture of Nck and p1 were digested with trypsin. Digested peptides were analyzed with an in-line EASY-spray source and nano-LC UltiMate 3000 high-performance liquid chromatography system (Thermo Fisher, USA) interfaced with an Elite mass spectrometer (Thermo Fisher, USA). The eluted peptides were detected by the Elite mass spectrometer, which was operated in data-dependent mode with one full MS scan at R = 60,000 (m/z = 200) mass, followed by MS/MS scans. Mass spectrometry raw data was searched by Maxquant.
Protein–Peptide Conjugation Reactions and the Binding Assay
The reaction solutions were then thermally denatured in the presence of loading dye to stop the reactions. […]

On to `CC[C@H](C)[C@H](NC(=O)[C@H](Cc1c[nH]cn1)NC(=O)[C@H](CCC(=O)O)NC(=O)[C@H](CCC(=O)O)NC(=O)CCCC[C@@H]1SC[C@@H]2NC(=O)N[C@@H]21)C(=O)N[C@@H](Cc1ccc(OP(=O)(O)O)cc1)C(=O)N[C@@H](CNC(=O)c1ccc(S(=O)(=O)F)cc1)C(=O)N[C@@H](CCC(=O)O)C(=O)N[C@H](C(=O)N[C@@H](C)C(=O)N[C@@H](C)C(=O)N[C@@H](CC(=O)O)C(N)=O)C(C)C` [p1] (Biotin-EEHI[pY][Dap](Benzoyl(4-SO2F))EVAAD-NH2; N-terminus and C-terminus assumed), for which the “reaction with endogenous Nck in cytosol” value in the assay on Nck in Caco-2 cells is “reacted with the endogenous Nck in the cytosol of Caco-2 cells”. The “time to reach 50% reaction efficiency” value on Nck is reported as 2 min.
